Reference: the CheMixHub viscosity set
“And” between values parts separate entries of the source, which are not always exact repeats. Equal values may be shown once.

Assay: xn = mol fraction of the nth substance listed

c1ccncc1 + CS(C)=O
viscosity [mPa·s], 101.3 kPa
Conditions | 298.15 K | 308.15 K | 318.15 K
x1 = 0.041 | 1.859 | 1.535 | 1.246
x1 = 0.089 | 1.803 | 1.47 | 1.191
x1 = 0.18 | 1.6 | 1.318 | 1.098
x1 = 0.274 | 1.488 | 1.2 | 1.042
x1 = 0.369 | 1.38 | 1.13 | 0.972
x1 = 0.468 | 1.28 | 1.044 | 0.922
x1 = 0.569 | 1.185 | 0.984 | 0.858
x1 = 0.673 | 1.097 | 0.913 | 0.795
x1 = 0.779 | 1.029 | 0.849 | 0.753
x1 = 0.888 | 0.969 | 0.791 | 0.723
x1 = 0.943 | 0.975 | 0.76 | 0.715

c1c[nH]cn1 + O=C1CCCCCN1
101 kPa, x2 = 0.5
Conditions | viscosity [mPa·s]
303.2 K | 49.07
313.1 K | 25
323.1 K | 16.2

CC(O)CCO (stereo not drawn) + CN1CCCC1=O
308.15 K, 101 kPa
Conditions | viscosity [mPa·s]
x1 = 0.0282 | 1.736
x1 = 0.0582 | 1.864
x1 = 0.1089 | 2.153
x1 = 0.2015 | 2.678
x1 = 0.3004 | 3.197
x1 = 0.4043 | 4.211
x1 = 0.4985 | 6.742
x1 = 0.5972 | 9.628
x1 = 0.7036 | 14.66
x1 = 0.798 | 22.77
x1 = 0.9029 | 34.77
x1 = 0.94 | 43.52
x1 = 0.9796 | 51.25

c1ccncc1 + CCCO
101 kPa
Conditions | viscosity [mPa·s]
303.15 K, x1 = 0.2999 | 1.165
303.15 K, x1 = 0.5 | 0.9865
308.15 K, x1 = 0.2999 | 1.065
313.15 K, x1 = 0.1001 | 1.205
323.15 K, x1 = 0.3998 | 0.7875

c1ccncc1 + CCCCn1cc[n+](C)c1.F[B-](F)(F)F
Conditions | viscosity [mPa·s]
298.15 K, 101 kPa, x1 = 0.1059 | 81.9

c1ccncc1 + Cc1cccc(C)c1
viscosity [mPa·s], 101 kPa
Conditions | x2 = 0.1993 | x2 = 0.2997 | x2 = 0.3994 | x2 = 0.524 | x2 = 0.5987 | x2 = 0.7003 | x2 = 0.7968 | x2 = 0.8972
293.15 K | 0.8031 | 0.7468 | 0.7151 | 0.6612 | 0.6415 | 0.6114 | 0.59 | 0.5649
303.15 K | 0.7062 | 0.6592 | 0.6241 | 0.5859 | 0.5687 | 0.547 | 0.5279 | 0.5097
313.15 K | 0.6189 | 0.5815 | 0.5504 | 0.5173 | 0.5023 | 0.4843 | 0.4668 | 0.4544
323.15 K | 0.5442 | 0.5118 | 0.4851 | 0.4563 | 0.4433 | 0.428 | 0.4122 | 0.4019

CCCCCCC(C)O (stereo not drawn) + Clc1ccccc1
viscosity [mPa·s], 101 kPa
Conditions | 298.15 K | 303.15 K
x2 = 0.0637 | 5.573 | 4.507
x2 = 0.1236 | 4.736 | 3.906
x2 = 0.1894 | 3.906 | 3.291
x2 = 0.2474 | 3.319 | 2.818
x2 = 0.3131 | 2.772 | 2.369
x2 = 0.374 | 2.378 | 1.981
x2 = 0.4525 | 1.947 | 1.641
x2 = 0.5014 | 1.737 | 1.467
x2 = 0.5867 | 1.452 | 1.238
x2 = 0.6813 | 1.203 | 1.08
x2 = 0.7429 | 1.085 | 1
x2 = 0.8098 | 0.968 | 0.929
x2 = 0.8776 | 0.872 | 0.867
x2 = 0.9446 | 0.803 | 0.786

c1ccncc1 + c1ccccc1
viscosity [mPa·s], 101 kPa
Conditions | x1 = 0.3943 | x1 = 0.5905 | x1 = 0.7944 | x1 = 0.8965 | x2 = 0.2 | x2 = 0.4 | x2 = 0.6 | x2 = 0.8
293.15 K | – | – | – | – | 0.893 | 0.832 | 0.77 | 0.709
298.15 K | 0.7169 | 0.7726 | 0.8345 | 0.8601 | – | – | – | –
313.15 K | – | – | – | – | 0.678 | 0.632 | 0.585 | 0.538

c1c[nH]cn1 + CCCC[N+](CCCC)(CCCC)CCCC.[Br-]
101.3 kPa, x2 = 0.3
Conditions | viscosity [mPa·s]
293.15 K | 810
296.15 K | 540
303.15 K | 314
313.15 K | 144.8
323.15 K | 75

c1cn[nH]c1 + c1ccccc1
viscosity [mPa·s], 101 kPa
Conditions | x1 = 0.02244 | x1 = 0.04519 | x1 = 0.05005 | x1 = 0.1006
303.15 K | 0.577 | 0.597 | 0.594 | 0.627
323.15 K | 0.449 | 0.46 | 0.462 | –

O=C(c1ccccc1)c1ccccc1 + CCCCCOC(C)=O
298.15 K, 101 kPa
Conditions | viscosity [mPa·s]
x1 = 0.0417 | 0.8506
x1 = 0.0472 | 0.8646

NCCNCCNCCN + CC(C)(N)CO
viscosity [mPa·s], 101 kPa
Conditions | x1 = 0.0971 | x1 = 0.2071 | x1 = 0.289 | x1 = 0.3787 | x1 = 0.4776 | x1 = 0.5872 | x1 = 0.7092 | x1 = 0.8458 | x1 = 0.9205
303.15 K | 93.54 | 86.24 | 80.73 | 74.33 | 67.05 | 58.76 | 49.22 | 38.21 | 32.14
313.15 K | 45.15 | 42.38 | 40.21 | 37.61 | 34.58 | 30.81 | 26.45 | 21.3 | 18.55
323.15 K | 23.64 | 22.83 | 22.02 | 20.95 | 19.54 | 17.81 | 15.76 | 13.05 | 11.61

CC(O)CCO (stereo not drawn) + O=C1CCCN1
Conditions | viscosity [mPa·s]
308.15 K, 101 kPa, x2 = 0.7935 | 11.85

CCCCCCC(C)O (stereo not drawn) + CCCCCCCCCCCC
298.15 K, 101 kPa
Conditions | viscosity
x1 = 0.0003 | 1.337 mPa·s
x2 = 0.0554 | 5.513 mPa·s and 5.51 mPa·s
x2 = 0.0999 | 4.916 mPa·s and 4.92 mPa·s
x2 = 0.1554 | 4.254 mPa·s and 4.25 mPa·s
x2 = 0.1998 | 3.786 mPa·s and 3.79 mPa·s
x2 = 0.2555 | 3.272 mPa·s and 3.27 mPa·s
x2 = 0.2998 | 2.916 mPa·s and 2.92 mPa·s
x2 = 0.3554 | 2.532 mPa·s and 2.53 mPa·s
x2 = 0.3998 | 2.27 mPa·s and 2.27 mPa·s
x2 = 0.4554 | 1.995 mPa·s and 2 mPa·s
x2 = 0.4999 | 1.813 mPa·s and 1.81 mPa·s
x2 = 0.5555 | 1.627 mPa·s and 1.63 mPa·s
x2 = 0.5998 | 1.508 mPa·s and 1.51 mPa·s
x2 = 0.6555 | 1.391 mPa·s and 1.39 mPa·s
x2 = 0.6998 | 1.32 mPa·s and 1.32 mPa·s
x2 = 0.7554 | 1.253 mPa·s and 1.25 mPa·s
x2 = 0.7998 | 1.213 mPa·s and 1.21 mPa·s
x2 = 0.8555 | 1.176 mPa·s and 1.18 mPa·s
x2 = 0.8999 | 1.152 mPa·s and 1.15 mPa·s
x2 = 0.9555 | 1.124 mPa·s and 1.12 mPa·s

CCOC(=O)C(Br)CC (stereo not drawn) + CCCCCC
303.15 K, 101 kPa
Conditions | viscosity [mPa·s]
x1 = 0.1972 | 0.3726
x1 = 0.3889 | 0.5074
x1 = 0.4924 | 0.6029
x1 = 0.5981 | 0.7246
x1 = 0.7949 | 1.032

c1ccncc1 + CCC(C)=O
100 kPa
Conditions | viscosity [mPa·s]
308.15 K, x1 = 0.1006 | 0.3835
313.15 K, x1 = 0.597 | 0.5265
323.15 K, x1 = 0.4004 | 0.4095

CC(=O)[O-].C[N+](C)(C)CCO + O
Conditions | viscosity [mPa·s]
298 K, 101.33 kPa, x2 = 0.8 | 30.5
